# Results: ChEMBL document CHEMBL1201862, “PubChem BioAssay data set” (2004)
# The source made the active and inactive calls.
# What was measured:
# [1] = P. falciparum Dd2 growth inhibitors, dose response, SYBR Green, cherry-picked samples (AID 1159567); format: functional, cell-based
# [2] = toxicity to human hepatoma HepG2 cells – cell-based, cherry-picked samples, cytotoxicity control, dose response (AID 1159577); format: functional
# [3] = target: T1, Rac GTPase-activating protein 1 (Homo sapiens, UniProt Q9H0H5); test: blockers of MgcRacGAP-driven Rac1 GTP hydrolysis – biochemical, ADP Hunter fluorescence, primary and confirmatory, confirmation (AID 624330); format: functional
# T1 sequence (Q9H0H5 whole entry): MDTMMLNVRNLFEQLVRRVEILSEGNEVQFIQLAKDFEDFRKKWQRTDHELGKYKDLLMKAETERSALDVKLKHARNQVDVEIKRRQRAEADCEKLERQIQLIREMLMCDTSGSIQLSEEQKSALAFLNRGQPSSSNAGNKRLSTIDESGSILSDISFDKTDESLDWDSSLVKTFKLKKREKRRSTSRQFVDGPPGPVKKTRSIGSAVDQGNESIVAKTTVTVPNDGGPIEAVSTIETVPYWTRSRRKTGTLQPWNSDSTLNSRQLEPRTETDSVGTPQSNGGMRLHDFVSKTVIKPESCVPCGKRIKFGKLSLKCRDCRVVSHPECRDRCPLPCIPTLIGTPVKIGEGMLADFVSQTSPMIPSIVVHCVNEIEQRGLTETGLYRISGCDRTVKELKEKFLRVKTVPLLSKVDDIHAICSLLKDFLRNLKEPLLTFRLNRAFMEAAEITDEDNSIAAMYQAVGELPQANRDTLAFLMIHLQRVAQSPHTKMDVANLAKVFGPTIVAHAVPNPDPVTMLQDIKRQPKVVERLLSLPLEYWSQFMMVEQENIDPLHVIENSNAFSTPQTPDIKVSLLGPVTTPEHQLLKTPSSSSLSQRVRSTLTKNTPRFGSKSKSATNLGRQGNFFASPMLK
# [4] = viability loss in HeLa cells – cytotoxicity control for MgcRacGAP inhibitor project, dose response (AID 624300); format: functional
# [5] = tested on: Vero; test: cells; format: functional, cell-based; settings: Chlorocebus sabaeus
# [6] = target: T2, High affinity choline transporter 1 (Homo sapiens, UniProt Q9GZV3); test: human choline transporter blockers, potency – cell-based, 5-point CRC, membrane potential dye, dose response (AID 504840); format: functional
# T2 sequence (Q9GZV3 whole entry): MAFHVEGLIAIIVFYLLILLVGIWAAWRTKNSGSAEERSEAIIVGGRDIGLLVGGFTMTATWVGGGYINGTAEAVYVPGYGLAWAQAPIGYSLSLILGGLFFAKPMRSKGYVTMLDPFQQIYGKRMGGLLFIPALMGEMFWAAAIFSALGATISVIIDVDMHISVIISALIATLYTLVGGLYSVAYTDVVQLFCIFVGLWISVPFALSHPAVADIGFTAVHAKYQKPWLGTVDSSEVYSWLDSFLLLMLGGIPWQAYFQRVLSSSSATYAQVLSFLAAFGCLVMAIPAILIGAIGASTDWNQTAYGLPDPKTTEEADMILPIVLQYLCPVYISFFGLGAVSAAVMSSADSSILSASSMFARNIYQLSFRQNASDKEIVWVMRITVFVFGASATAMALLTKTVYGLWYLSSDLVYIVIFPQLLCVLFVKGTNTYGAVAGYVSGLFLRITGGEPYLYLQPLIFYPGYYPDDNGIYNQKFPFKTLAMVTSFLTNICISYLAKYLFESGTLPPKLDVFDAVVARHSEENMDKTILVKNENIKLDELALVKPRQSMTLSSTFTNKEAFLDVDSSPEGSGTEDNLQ
# [7] = tested on: Vero; test: cells; format: functional; settings: Chlorocebus sabaeus
# [8] = blockers of CRF-binding protein–CRF-R2 complex – cell-based, uHTS hits, 384-well, dose response (AID 651639); format: functional, Homo sapiens; settings: read-out: IC50_Mean
# [9] = target: T3, Corticotropin-releasing factor receptor 2/Corticotropin-releasing factor-binding protein (Homo sapiens, UniProt P24387+Q13324); test: Dose Response confirmation of uHTS hits for small molecule antagonists of the CRF-binding protein and CRF-R2 receptor complex.; format: functional; settings: read-out: IC50_Mean
# T3 sequence (Q13324 whole entry): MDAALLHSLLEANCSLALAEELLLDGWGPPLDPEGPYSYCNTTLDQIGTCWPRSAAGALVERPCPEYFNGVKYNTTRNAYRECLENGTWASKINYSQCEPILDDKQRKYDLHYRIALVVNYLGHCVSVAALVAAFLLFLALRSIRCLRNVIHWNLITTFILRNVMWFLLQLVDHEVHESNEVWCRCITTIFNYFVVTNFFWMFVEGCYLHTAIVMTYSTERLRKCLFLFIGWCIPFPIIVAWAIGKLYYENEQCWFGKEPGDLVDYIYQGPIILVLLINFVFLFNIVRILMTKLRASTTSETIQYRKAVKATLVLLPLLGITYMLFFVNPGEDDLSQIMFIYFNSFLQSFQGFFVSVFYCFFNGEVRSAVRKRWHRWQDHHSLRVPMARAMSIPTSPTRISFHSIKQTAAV
# T3 sequence (P24387 whole entry): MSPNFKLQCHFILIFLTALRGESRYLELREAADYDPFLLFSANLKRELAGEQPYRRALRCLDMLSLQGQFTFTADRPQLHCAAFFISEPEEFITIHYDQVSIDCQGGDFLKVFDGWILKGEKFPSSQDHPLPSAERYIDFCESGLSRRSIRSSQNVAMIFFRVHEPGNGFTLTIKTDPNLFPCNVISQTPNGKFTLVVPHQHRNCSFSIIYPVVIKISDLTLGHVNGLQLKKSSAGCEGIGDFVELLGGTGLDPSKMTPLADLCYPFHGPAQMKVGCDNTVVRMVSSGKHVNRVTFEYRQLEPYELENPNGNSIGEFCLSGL
# [10] = target: T3, Corticotropin-releasing factor receptor 2/Corticotropin-releasing factor-binding protein; test: activators of CRF receptor 2 with binding protein – uHTS hits, confirmation (AID 602473); format: functional; settings: read-out: EC50_Mean
# [11] = growth inhibition of yeast DHODH-expressing 3D7 parasites – SYBR Green, dry powder samples, dose response (AID 1159570); format: functional, cell-based;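 note: parasite growth measured after 72 hours of compound exposure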
# [12] = Dd2 malaria parasite growth inhibition potency – SYBR Green, dry powder samples, dose response (AID 1159566); format: functional, cell-based;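 note: potency for growth inhibition with lower SYBR green DNA signal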
# [13] = growth inhibition of PfATP4-mutant resistant parasites – NITD609-resistant line, SYBR Green, dry powder, dose response (AID 1159571); format: functional, cell-based;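 note: parasites synchronized at ring stage by sorbitol before testing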
# [14] = target: T4, Protein skinhead-1 (Caenorhabditis elegans, UniProt P34707); format: functional
# T4 sequence (P34707 whole entry): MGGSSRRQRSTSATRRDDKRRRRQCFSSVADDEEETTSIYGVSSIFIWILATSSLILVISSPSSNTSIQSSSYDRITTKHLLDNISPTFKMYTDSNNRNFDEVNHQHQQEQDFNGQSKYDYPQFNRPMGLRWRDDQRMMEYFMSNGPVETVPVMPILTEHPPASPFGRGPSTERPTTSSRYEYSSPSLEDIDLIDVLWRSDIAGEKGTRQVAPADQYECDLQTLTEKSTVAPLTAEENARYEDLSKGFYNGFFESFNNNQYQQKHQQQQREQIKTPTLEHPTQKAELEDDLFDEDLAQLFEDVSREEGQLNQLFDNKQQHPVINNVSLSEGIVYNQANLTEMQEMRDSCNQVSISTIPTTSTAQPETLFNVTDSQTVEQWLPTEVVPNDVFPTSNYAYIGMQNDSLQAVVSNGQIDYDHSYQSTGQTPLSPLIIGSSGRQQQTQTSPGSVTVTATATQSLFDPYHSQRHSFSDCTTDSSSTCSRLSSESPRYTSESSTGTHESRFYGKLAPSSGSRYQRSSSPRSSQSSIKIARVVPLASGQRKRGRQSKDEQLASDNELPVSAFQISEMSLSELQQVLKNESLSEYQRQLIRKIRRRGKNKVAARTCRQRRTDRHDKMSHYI
# [15] = tested on: H9c2; test: cells; format: functional, cell-based; settings: Rattus norvegicus, H9c2, Myocardium;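 note: confirmatory concentration-response retest of ultra-high-throughput screening hits for modulation of myocardial damage; cell death induced by hydrogen peroxide oxidative stress; compound pretreatment for 60 min then peroxide exposure for 2 h; potency is for protecting the cells against peroxide damage rather than for killing them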
Compound,AC50 [1],AC50 [2],IC50 [8],IC50 [9],EC50 [10],also measured
OC[C@H]1[C@@H](c2ccc(/C=C/c3ccccc3)cc2)[C@@H]2CN(Cc3cncnc3)CCCCN12,4.13 µM (active),20.3 µM (active),,,,
COc1cccc2c1C(=O)c1c(O)c3c(c(O)c1C2=O)C[C@@](O)(C(=O)CO)C[C@@H]3OC1CC(N)C(O)C(C)O1 (some centres not stated),,,,,,IC50 [3]: 53.5 µM (active); CC50 [4]: 23.5 µM (active); IC50 [5]: > 25 µM (active)
Cc1ccccc1C(=O)c1cccn1CC(=O)NC(C)c1ccccc1 (configuration not stated),,,,,,IC50 [6]: 12.6 µM (active)
Clc1ccc(-c2cc(C3CCNCC3)[nH]n2)c(Cl)c1,,,,,,IC50 [5]: 24.8 µM (active); CC50 [7]: > 25 µM (active)
NC(=O)c1ccc(NCc2ccco2)c([N+](=O)[O-])c1,,,3.57 µM (active),5.79 µM (active),> 53 µM (inactive),
N#C/C(=N\Nc1ccccc1Cl)C(=O)c1ccccc1,,,> 20 µM (inactive),10.2 µM (active),> 53 µM (inactive),
OC[C@@H]1Nc2ccc(C#Cc3ccccc3)cc2[C@@H]2[C@H]1CCN2Cc1nccs1,2.95 µM (active),> 39 µM (inactive),,,,AC50 [11]: 3.71 µM (active); AC50 [12]: 3.5 µM (active); AC50 [13]: 3.32 µM (active)
Cc1nn(C(C)C(=O)NC(C)CCc2ccccc2)c(=O)c2cc3occc3n12 (configuration not stated),,,,,,IC50 [6]: 17.4 µM (active)
O=c1oc2ccc3ccccc3c2cc1-c1nnc(-c2ccccc2)o1,,,0.39 µM (active),< 0.368 µM (active),> 53 µM (inactive),IC50 [14]: > 100 µM (inactive); IC50 [15]: > 79 µM (inactive)
COc1ccc(NC(=O)Nc2cccc3c2O[C@H](CN(C)Cc2ccc(-c4ccccc4)cc2)[C@@H](C)CN([C@@H](C)CO)C3=O)cc1,3.25 µM (active),16.2 µM (active),,,,
